Among the test systems are HL-60; SK-MEL-2; OVCAR-8; HCT-116; SNB-75; UO-31; NCI-H460; SF-295; OVCAR-5; HCT-15; M14; SF-539; Malme-3M; UACC-257; OVCAR-4; RXF 393; 786-0; TK-10; NCI-H226.
Holding throughout (experiment): inhibition of tumour cell growth, NCI panel, 48 h

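Results reflect a 48-hour exposure of cells in 96-well plates to compound at five concentrations. The concentration for 50% growth inhibition is given as GI50.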 Active and inactive are the calls of the source. Cut-off read from the data, not from the text of the source: active = GI50 up to about 1.1 µM and inactive = higher.

Take `O=C(O)c1ccc([N+](=O)[O-])c2c(=O)c3ccccc3[nH]c12`: the GI50 is > 100 µM (inactive) in the assay on HL-60; > 100 µM (inactive) in the assay on SK-MEL-2; > 100 µM (inactive) in the assay on OVCAR-8; > 100 µM (inactive) with HCT-116; 99.5 µM (inactive) in the assay on SNB-75; > 100 µM (inactive) with UO-31. Also, the GI50 in the assay with NCI-H460 is > 100 µM (inactive); in the assay on SF-295, > 100 µM (inactive); with OVCAR-5 it was > 100 µM (inactive); in the assay on HCT-15, above 100 µM; in the assay with M14, > 100 µM (inactive); with SF-539 it was > 100 µM (inactive). Also, the GI50 with Malme-3M, in the assay on UACC-257, with OVCAR-4, in the assay on RXF 393 and in the assay with 786-0 was > 100 µM (inactive) throughout.

As to `CN(CC(=O)O)S(=O)(=O)c1ccc(F)cc1`, the GI50 in the assay on HL-60, with SK-MEL-2, in the assay with OVCAR-8, with SNB-75, in the assay with UO-31 and in the assay on NCI-H460 was > 100 µM (inactive) throughout. Besides, the GI50 with SF-295 is > 100 µM (inactive); in the assay on OVCAR-5, > 100 µM (inactive); in the assay with HCT-15, above 100 µM; with M14, > 100 µM (inactive); in the assay with SF-539 it was > 100 µM (inactive); with Malme-3M, > 100 µM (inactive). Moreover, the GI50 in the assay on UACC-257, with OVCAR-4, in the assay on TK-10, in the assay with RXF 393 and with 786-0 was > 100 µM (inactive) each time.

For `CCCCN1C(=O)C2c3[nH]c4ccccc4c3C3CCCCC3C2C1=O.CCCCN1C(=O)C2c3[nH]c4ccccc4c3[C@@H]3CCCCC3C2C1=O` (stereo not drawn), the GI50 in the assay with HL-60 is 13.6 µM (inactive); with OVCAR-8, 11.8 µM (inactive); in the assay on HCT-116 it was 9.42 µM (inactive); in the assay on SNB-75, 7.11 µM (inactive); with UO-31 it was 14.8 µM (inactive); with NCI-H460, 10.5 µM (inactive). Further, the GI50 is 7.93 µM (inactive) in the assay on SF-295; 29.4 µM in the assay with HCT-15; 13.4 µM (inactive) with M14; 14.8 µM (inactive) with SF-539; 2.38 µM (inactive) in the assay on OVCAR-4; 13.7 µM (inactive) in the assay with TK-10. For the same compound, the GI50 in the assay with 786-0 was 4.41 µM (inactive).

On to `COc1ccc(/C=[N+](\[O-])[C@H](COCc2ccccc2)c2ccccc2)cc1`, for which the GI50 with HL-60 was 25 µM (inactive); with SK-MEL-2, 30.3 µM (inactive); in the assay with OVCAR-8, > 100 µM (inactive); in the assay with HCT-116, 43.3 µM (inactive); in the assay on SNB-75, > 100 µM (inactive); in the assay on UO-31 it was 17.3 µM (inactive). The GI50 is 63.7 µM (inactive) with NCI-H460; 66.8 µM (inactive) in the assay with SF-295; > 100 µM (inactive) in the assay with OVCAR-5; > 100 µM (inactive) in the assay with SF-539; 42.1 µM (inactive) in the assay with Malme-3M; > 100 µM (inactive) in the assay with UACC-257. The GI50 in the assay with TK-10 was > 100 µM (inactive); in the assay on RXF 393, 98.9 µM (inactive); in the assay with 786-0, > 100 µM (inactive).

For the compound `Cc1csc(NNC(N)=O)n1`, the GI50 with HL-60, with SK-MEL-2, in the assay on OVCAR-8, in the assay on HCT-116, in the assay with SNB-75 and with UO-31 was > 100 µM (inactive) in each case. The GI50 with NCI-H226 was > 100 µM (inactive); in the assay on NCI-H460 it was > 100 µM (inactive); with SF-295 it was > 100 µM (inactive); with OVCAR-5, > 100 µM (inactive); with HCT-15, above 100 µM; with M14, > 100 µM (inactive). The GI50 with SF-539, in the assay on UACC-257, with OVCAR-4, in the assay on TK-10, with RXF 393 and with 786-0 was > 100 µM (inactive) in each case.

With `Cc1ccc(NC(=O)CCc2nnc3s/c(=C\c4cccc([N+](=O)[O-])c4)c(=O)n23)cc1`, the GI50 with SK-MEL-2 was > 100 µM (inactive); in the assay with OVCAR-8 it was > 100 µM (inactive); with HCT-116 it was > 100 µM (inactive); in the assay on SNB-75, 40.6 µM (inactive); in the assay with UO-31, > 100 µM (inactive); with NCI-H226 it was > 100 µM (inactive). Moreover, the GI50 with NCI-H460 was > 100 µM (inactive); in the assay on SF-295 it was 59.2 µM (inactive); in the assay with OVCAR-5, > 100 µM (inactive); with HCT-15 it was above 100 µM; in the assay on M14 it was > 100 µM (inactive); in the assay on SF-539 it was 25.3 µM (inactive). The GI50 in the assay with Malme-3M is > 100 µM (inactive); in the assay with UACC-257, > 100 µM (inactive); with OVCAR-4 it was > 100 µM (inactive); in the assay on TK-10, > 100 µM (inactive); in the assay on RXF 393 it was > 100 µM (inactive); with 786-0 it was 40.4 µM (inactive).

With `O=C1OC(c2ccccc2)C2CC3CC4(CCC3CN12)OCCO4` (stereo not drawn), the GI50 is 67.8 µM (inactive) in the assay with HL-60; > 100 µM (inactive) in the assay on SK-MEL-2; > 100 µM (inactive) in the assay on OVCAR-8; > 100 µM (inactive) in the assay on HCT-116; 52 µM (inactive) with SNB-75; > 100 µM (inactive) in the assay on UO-31. Besides, the GI50 in the assay on NCI-H226 was > 100 µM (inactive); in the assay with NCI-H460, > 100 µM (inactive); in the assay on SF-295, > 100 µM (inactive); with OVCAR-5, > 100 µM (inactive); with HCT-15, above 100 µM; with M14, > 100 µM (inactive). The GI50 was > 100 µM (inactive) in the assay with SF-539; > 100 µM (inactive) with UACC-257; 88.5 µM (inactive) with OVCAR-4; > 100 µM (inactive) in the assay on TK-10; > 100 µM (inactive) with RXF 393; > 100 µM (inactive) with 786-0.

Take `C[n+]1cccc(NC(=O)c2ccc(NC(=O)C34CCC(C(=O)Nc5ccc(C(=O)Nc6ccc[n+](C)c6)cc5)(CC3)CC4)cc2)c1`: the GI50 was 1.87 µM (inactive) with HL-60; 42.7 µM (inactive) in the assay with OVCAR-8; 33.5 µM (inactive) in the assay with HCT-116; 2.84 µM (inactive) in the assay on SNB-75; > 100 µM (inactive) with NCI-H226; 7.45 µM (inactive) with NCI-H460. For the same compound, the GI50 with SF-295 was 19.7 µM (inactive); with OVCAR-5 it was > 100 µM (inactive); in the assay on HCT-15, 58.2 µM; with M14, > 100 µM (inactive); in the assay on SF-539, 80.5 µM (inactive); in the assay with UACC-257, 15.7 µM (inactive). For the same compound, the GI50 with OVCAR-4 was > 100 µM (inactive); with RXF 393 it was 22.1 µM (inactive); with 786-0 it was 3.7 µM (inactive).

For the compound `Cc1ccc(NC(=O)c2cccc([N+](=O)[O-])c2O)c([N+](=O)[O-])c1`, the GI50 was 25.9 µM (inactive) with HL-60; 12.5 µM (inactive) with OVCAR-8; 9.38 µM (inactive) in the assay on HCT-116; 13.7 µM (inactive) in the assay on SNB-75; 24.1 µM (inactive) with UO-31; 3.29 µM (inactive) with NCI-H226. The GI50 was 5.58 µM (inactive) in the assay with NCI-H460; 15.1 µM (inactive) in the assay on SF-295; 20.2 µM (inactive) in the assay on OVCAR-5; 14.4 µM in the assay with HCT-15; 16.7 µM (inactive) with M14; 14.7 µM (inactive) in the assay with SF-539. The GI50 is 14.9 µM (inactive) in the assay with Malme-3M; 16.2 µM (inactive) with UACC-257; 13.5 µM (inactive) with OVCAR-4; 11.3 µM (inactive) with RXF 393; 12.7 µM (inactive) with 786-0.

These data come from ChEMBL document CHEMBL1201862, “PubChem BioAssay data set” (2004).
